Experimental data published in patent publication US20220096508A1, “METHOD OF TREATMENT AND PHARMACEUTICAL DOSAGE FORM” (Aprea Therapeutics AB, priority 2019, published 2022).
Like-named read-outs stand apart in the source and are kept apart here.

Test system: TP53 mutant myeloid neoplasms
From the text: The study, identified as NCT03072043 on clinicaltrials.gov, is a multi-institution, open-label, phase Ib/II clinical trial conducted in 2 parts: a Phase 1 b part followed by a Simon's two-stage Phase 2 design. The study assesses the safety and efficacy of APR-246 in combination with azacitidine for the treatment of TP53 mutant myeloid neoplasms. All patients were pre-screened by NGS on peripheral blood (PB) or bone marrow (BM) samples to determine TP53 mutational status and therefore eligibility to participate in this study. A PB sample was obtained prior to treatment for NGS by a central laboratory, to evaluate baseline TP53 VAF and for serial analysis.
Treatment was administered on an outpatient basis. No investigational or commercial agents or therapies other than those described were administered with the intent to treat the patient's MDS or MDS/MPN. APR-246 was supplied by Aprea Therapeutics AB. The investigational medicinal product was a concentrate for solution, diluted with sterile 0.9% NaCl solution for infusion before administration. The solution for infusion was prepared with the prescribed dosage for each patient in accordance with the protocol and separate technical instruction.
The initial Phase 1 b part evaluated APR-246 administered with azacitidine. Cohorts of at least 3 evaluable patients were enrolled using a modified 3+3 design. Patients received IV infusions of APR-246 as a lead-in phase on days −14 to −11, starting at Dose Level 1 (see below and in Table 1) prior to starting cycle #1 of combination therapy with azacitidine (see FIG. 1) In all cycles, APR-246 was administered as a 6-hour infusion daily for four consecutive days (study days −14 to −11 of the lead in phase and day 1 to 4 of each combination cycle). • Dose Level 1 (starting dose): APR-246 21.0 mg/kg LBM (for the first 45 min)+29 mg/kg LBM (for 5 h 15 min) on days 1 to 4. • Dose Level 2: APR-246 30.0 mg/kg LBM (for first 45 min)+45.0 mg/kg LBM (for 5 h 15 min) on days 1 to 4. • Dose Level 3: APR-246 37.0 mg/kg LBM (for first 45 min)+63.0 mg/kg LBM (for 5 h 15 min) on days 1 to 4.
Thus, the combination therapy consisted of APR-246 on days 1-4 and azacitidine on days 4-10 of a 28-day cycle. Azacitidine was administered subcutaneously (SC) or intravenously (SC being preferred) at 75 mg/m^2 for 7 days (either for 7 consecutive days (days 4-10) or on 2+5 days (i.e. days 4-5 and 8-12)). Azacitidine was administered on day 4 at the same time as the final infusion of APR-246. Azacitidine was given following the completion of APR-246 infusion. Cohorts of at least 3 evaluable patients were enrolled using a modified 3+3 design. Patients were followed for at least 6 weeks (lead-in phase+cycle 1) before decision to dose escalation in the next cohort following a full safety assessment. The MTD was defined as the dose level below which DLT is manifested in 33% of the patients or at dose level 1 if DLT is manifested in <33% of the patients.
Following completion of the dose finding phase described above, a dose expansion was carried out, whereby patients are treated with APR-246 administered at the MTD with azacitidine on a 28-day cycle with the same dosing schedule as in Phase Ib, with the exception of no lead in phase (i.e. patients will start at day 1 of combination therapy with APR-246 on days 1˜4 and azacitidine on days 4-10 (or days 4-5 and 8-12) of a 28-day cycle as illustrated in FIG. 1), and the exception that the recommended Phase 2 dose was modified from 100 mg/kg LBM to a fixed dose regimen of 4500 mg/patient (i.e. APR-246 administration in 2 consecutive steps as a loading dose (1500 mg for first 45 min) and a maintenance dose (3000 mg for 5 h 15 min)).

[1] = MDS population (n=40), combination with azacitidine
[2] = protocol-defined efficacy evaluable MDS population (n=33), combination with azacitidine

## COCC1(CO)C(=O)C2CCN1CC2 (stereo not drawn) [APR-246, 2-hydroxymethyl-2-methoxymethyl-1-azabicyclo [2,2,2] octan-3-one]
MDS patients, combination with azacitidine
  patients able to discontinue therapy and proceed to allogeneic SCT: 40%
[1]
  CR rate: 50%
  ORR: 73%
Efficacy evaluable MDS patients, combination with azacitidine
  patients able to discontinue therapy and proceed to allogeneic SCT: 48%
human, in vivo
  recommended Phase 2 dose: 100 mg/kg lean body weight
Of 24 evaluable patients at the MTD, combination with azacitidine
  patients who achieved CR, Stage 1: More than 6
Of 45 evaluable patients, combination with azacitidine
  patients who achieved CR, Stage 2: More than 14
[2]
  CR: 61%
  ORR: 88%
